Bridge positions count the residues as written; N and C are the ends. Square brackets hold non-standard residues; d marks the D form. Peptide text beside a SMILES is read from it. N(1-adamantyl)Gly = O=C(O)CNC12CC3CC(CC(C3)C1)C2; Cha = N[C@@H](CC1CCCCC1)C(=O)O; S5 = C=CCCC[C@](C)(N)C(=O)O; PEG3 = NCCOCCOCCOCCC(=O)O
Legend:
[1] = Circular dichroism (CD), calculated helicity; assay type: physicochemical; details: 50 μM peptide in 30% PBS (pH 7.4) and 70% acetonitrile, calculated from CD spectra
Protocol: Lyophilized compounds (YL2 and YL2-HyT1 through YL2-HyT6) were dissolved in 30% PBS (pH 7.4) and 70% acetonitrile solution to a final concentration of 50 μM. CD spectra were measured with a Jasco J-815 CD spectropolarimeter using a quartz cuvette (2 mm path length). These spectra were averages of five successive accumulations with a scan rate of 100 nm/min. Raw data were converted in terms of per-residue molar ellipticity (deg·cm^2·dmol^−1·residue^−1) as calculated per mole of amide groups present and normalized by the molar concentration of peptides. Smoothing and correction of background spectra were performed with Origin Pro 8.0 (OriginLab Corporation, Northampton, MA, USA). Then α-helical propensities of YL2 and YL2-HyT1 through YL2-HyT6 were calculated as previously reported.

[2] = target: T1, SRC-1 in MDA-MB-231 cells (Homo sapiens, UniProt Q15788); assay: Immunoblot analysis of cellular SRC-1 levels (SRC-1 degradation); assay type: cell-based; details: for SRC-1 (%): normalized to GAPDH and DMSO controls
T1 construct: endogenous in cells; host or cells: MDA-MB-231
T1 sequence (Q15788 whole entry): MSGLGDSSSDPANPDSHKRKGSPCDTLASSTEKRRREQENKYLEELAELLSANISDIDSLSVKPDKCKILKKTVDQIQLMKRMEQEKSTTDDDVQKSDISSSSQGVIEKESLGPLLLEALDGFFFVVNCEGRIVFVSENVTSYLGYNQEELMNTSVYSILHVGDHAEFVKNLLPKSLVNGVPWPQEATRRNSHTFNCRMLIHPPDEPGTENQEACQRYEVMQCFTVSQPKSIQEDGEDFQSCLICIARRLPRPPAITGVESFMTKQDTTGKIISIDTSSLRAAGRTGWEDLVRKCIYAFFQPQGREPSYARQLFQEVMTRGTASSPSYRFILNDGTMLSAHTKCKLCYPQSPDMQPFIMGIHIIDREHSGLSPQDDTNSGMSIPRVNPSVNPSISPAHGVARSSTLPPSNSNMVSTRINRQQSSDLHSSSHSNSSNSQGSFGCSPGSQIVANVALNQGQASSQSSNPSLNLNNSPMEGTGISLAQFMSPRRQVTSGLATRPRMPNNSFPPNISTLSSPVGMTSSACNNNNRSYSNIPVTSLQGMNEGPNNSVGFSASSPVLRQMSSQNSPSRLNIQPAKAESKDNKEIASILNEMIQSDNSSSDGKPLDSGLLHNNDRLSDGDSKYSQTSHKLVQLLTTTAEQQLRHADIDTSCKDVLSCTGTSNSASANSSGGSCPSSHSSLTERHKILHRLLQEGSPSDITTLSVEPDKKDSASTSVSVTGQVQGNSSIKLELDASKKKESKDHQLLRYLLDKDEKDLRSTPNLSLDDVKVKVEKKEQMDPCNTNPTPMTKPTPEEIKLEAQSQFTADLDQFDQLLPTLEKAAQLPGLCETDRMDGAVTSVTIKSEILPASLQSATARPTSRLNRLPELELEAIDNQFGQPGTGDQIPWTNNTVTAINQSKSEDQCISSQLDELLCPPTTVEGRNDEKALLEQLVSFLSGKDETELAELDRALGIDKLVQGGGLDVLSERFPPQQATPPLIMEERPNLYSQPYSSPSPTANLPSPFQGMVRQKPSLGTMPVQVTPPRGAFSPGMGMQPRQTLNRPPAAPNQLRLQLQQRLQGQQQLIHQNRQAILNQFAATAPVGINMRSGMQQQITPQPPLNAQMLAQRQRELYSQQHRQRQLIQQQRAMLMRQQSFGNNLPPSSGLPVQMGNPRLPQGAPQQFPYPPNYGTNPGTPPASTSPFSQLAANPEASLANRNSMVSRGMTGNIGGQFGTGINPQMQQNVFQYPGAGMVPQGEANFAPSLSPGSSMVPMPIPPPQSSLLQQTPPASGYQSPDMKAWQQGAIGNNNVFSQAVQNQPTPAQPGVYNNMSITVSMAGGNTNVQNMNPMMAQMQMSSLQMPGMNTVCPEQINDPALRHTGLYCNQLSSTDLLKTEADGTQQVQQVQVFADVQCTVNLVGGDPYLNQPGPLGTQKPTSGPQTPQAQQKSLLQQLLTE
Protocol: MDA-MB-231 and HEK293T cells were cultured in a medium containing Dulbecco’s modified eagle medium (DMEM) supplemented with 1% penicillin–streptomycin (PS) and 10% FBS with 5% CO2 at 37 °C.
MDA-MB-231 cells were seeded into 6-well pates (Corning, 3506) at a density of 6 × 10^5 cell per well. After incubation at 37 °C for 24 h, cells were treated with synthesized compounds in Opti-MEM medium for 12, 18, or 24 h. Cells were washed twice with cold Dulbecco’s phosphate-buffered saline (DPBS) prior to cell lysis using a cell lysis buffer (1% Triton X-100, 150 mM NaCl, 50 mM Tris-HCl pH 7.6, 0.1% SDS, 0.5% sodium deoxycholate, and 1 × protease inhibitor cocktail) on ice. Cell lysates were centrifuged at 13,000 rpm at 4 °C for 15 min. The supernatant was collected, and protein concentration was determined using Pierce^TM 660nm protein assay. A 6 × SDS loading buffer was added to the cell lysate and incubated at 95 °C for 5 min. The same amount of protein was subjected to SDS-PAGE and transferred to PVDF membranes. After blocking membranes with 5% skim milk in TBST (Tris-buffered saline with 0.05% Tween 20), membranes were incubated with a primary antibody at 4 °C overnight. Membranes were then incubated with HRP-linked secondary antibody at rt for 1 h and developed with Pico ECL solution. In MG-132 and 17-AAG treatment experiments, MDA-MB-231 cells were cotreated with synthesized compounds and MG-132 (5 μM) or 17-AAG (1 μM) at 37 °C for 18 h.

[3] = system: E-cadherin mRNA in MDA-MB-231 cells; assay: RT-qPCR of E-cadherin mRNA; assay type: cell-based, human; details: 18 h, RT-qPCR normalized to 18S
Protocol: Quantitative real-time PCR was performed for CSF-1, E-cadherin, and 18S (as a reference gene) mRNAs. MDA-MB-231 cells (1.2 × 10^5 cells/well) were seeded into a 12-well plate and incubated at 37 °C with 5% CO2 for 24 h. These cells were treated with indicated compounds (YL2, adamantane, ND1-YL2, or YL2-HyT6) for 18 h in Opti-MEM medium. After cells were washed with cold DPBS, mRNAs were isolated from these cells using an AccuPrep Universal RNA extraction kit (Bioneer, Daejeon, Korea). Then 1.5 µg of mRNAs were reverse-transcribed using AccuPower RocketScript Cycle RT PreMix (Bioneer) to generate complementary DNAs. RT-qPCR for CSF-1, E-cadherin, and 18S was performed with a StepOnePlus Real-Time PCR System (Applied Biosystems, Waltham, MA, USA) and SYBR Green mix (Applied Biosystems) according to the manufacturer’s instructions with gene-specific primers (Table 1).

[4] = system: MDA-MB-231 cells; assay: Gap closure migration (wound healing) assay; assay type: cell-based, human; details: 20 µM, 72 h
Protocol: MDA-MB-231 cells (2.8 × 10^4 cells/well) were seeded into Culture-Insert 2 wells (ibidi, 80209) placed in a 35 mm culture dish. After incubation at 37 °C with 5% CO2 for 24 h, Culture-Insert 2 wells were carefully removed from the culture dish with a sterilized tweezer. These cells were then treated with indicated compounds (YL2, adamantane, ND1-YL2, or YL2-HyT6) in Opti-MEM medium for 72 h. Cell images were obtained with a culture microscope (Olympus, Tokyo, Japan, CKX41). The cell-free area of the image was quantified with ImageJ software (NIH, Bethesda, MD, USA). The relative gap-closure area was calculated using the following equation: […] where A was the cell-free area. (2) Gap−Closure %=At=0 h−At=72 h/At=0 h×100

[5] = system: MDA-MB-231 cells; assay: Matrigel transwell invasion assay; assay type: cell-based, human; details: Matrigel chambers, 24 h
Protocol: Matrigel invasion chambers (Corning 354480) were placed in 24-well plates and rehydrated with FBS-free DMEM medium at 37 °C in a CO2 incubator for 2 h. After removing the medium, 4 × 10^4 cells of MDA-MB-231 were seeded into Matrigel invasion chambers and control chambers (Corning, 354578) with 125 µL of Opti-MEM medium. Then another 125 µL of each compound (YL2, adamantane, ND1-YL2, or YL2-HyT6) in Opti-MEM medium was added to each chamber. The bottom of the well was filled with 500 µL of DMEM medium containing 10% FBS 1% PS. The chambers were then incubated at 37 °C with 5% CO2 for 24 h. After removing the medium, the chambers were washed with cold PBS. Then noninvading cells on the upper surface of the membrane were removed by scrubbing with a cotton swab. Cells on the bottom side of the membrane were fixed with 500 µL of 4% formaldehyde for 10 min at rt. After washing with PBS, the bottom side of the chamber was stained with 500 µL of Hoechst 33342 (5 µg/mL) for 5 min at 37 °C in the CO2 incubator. […] The percent invasion (% invasion) of each sample was determined with the following equation:(3) % Invasion=Mean # of cells invading through Matrigel chamber membrane/Mean # of cells migrating through control chamber membrane×100

Helicity (%) [1]: 32.6% | SRC-1 (%) ([2]; MDA-MB-231 cells, 10 μM compound, 18 h): 30% | SRC-1 (%) ([2]; MDA-MB-231 cells, 20 μM compound, 18 h): 20% | Time to recovery of SRC-1 after washing out compound ([2]; MDA-MB-231 cells, 20 μM for 18 h, then washed away): ≤ 12 h | Time-dependent SRC-1 degradation ([2]; MDA-MB-231 cells, 20 μM, various time periods up to 24 h): evidently degraded after 6 h | SRC-1 (%) ([2]; MDA-MB-231 cells, 50 μM compound, 18 h): 13% | DC50 ([2]; MDA-MB-231 cells, 18 h, immunoblot quantitation (Figure S4), three independent experiments, read-out: DC50 (reduction of cellular SRC-1 levels)): ~5 µM
Compound: CC(C)C[C@H](NC(=O)CCOCCOCCOCCNC(=O)CNC12CC3CC(CC(C3)C1)C2)C(=O)N[C@@H](CC(C)C)C(=O)N1CCC[C@H]1C(=O)N1CCC[C@H]1C(=O)N[C@H](C(=O)N[C@@H](CCC(=O)O)C(=O)N[C@@H](CCC(N)=O)C(=O)N[C@@H](CC(=O)O)C(=O)N[C@@H](CC(C)C)C(=O)N[C@@]1(C)CCC/C=C\CCC[C@@](C)(C(=O)N[C@@H](Cc2ccc(O)cc2)C(N)=O)NC(=O)[C@H](CC2CCCCC2)NC(=O)[C@H](CC(C)C)NC(=O)[C@H](CCCCN)NC1=O)[C@@H](C)O [YL2-HyT6] (H-[N(1-adamantyl)Gly][PEG3]LLPPTEQDL[S5]KL[Cha][S5]Y-NH2; staple (Z) 12-16; C-terminus assumed)
SRC-1 degradation activity compared within YL2-HyT1–6 ([2]; MDA-MB-231 cells, 12, 18 and 24 h): most effective SRC-1 degradation activity at all three time points | SRC-1 levels on cotreatment with Hsp90 inhibitor 17-AAG ([2]; MDA-MB-231 cells, YL2-HyT6 2.5 μM with 17-AAG (1 μM), 18 h): SRC-1 degradation even at a concentration that did not affect SRC-1 levels previously | SRC-1 levels on cotreatment with proteasome inhibitor MG-132 ([2]; MDA-MB-231 cells, cotreated with MG-132 (5 μM), 18 h): SRC-1 levels were not changed in the presence of MG-132 | E-cadherin mRNA expression level [3]: increase in E-cadherin | Wound gap closure (cell migration) [4]: significantly inhibited gap closing | Cell invasion [5]: remarkably decreased the invasion

Source: publication PMC8232704, “Hydrophobic Tagging-Mediated Degradation of Transcription Coactivator SRC-1” (International Journal of Molecular Sciences, 2021)
